Test system: LG0703-F948-PDC complex spheroid viability
Assay: Anticancer human tumor LG0703-F948-PDC patient-derived lung adenocarcinoma cell line growth inhibition [RAS]
Settings: for IC50: curve of first compound; for viability, T/C: stronger effect = lower value
Method in brief: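 Multi-cell-type spheroids: tumor cells plus HUVEC endothelial cells and mesenchymal stem cells. RAS-pathway inhibitors were combined with targeted agents, each dosed in half-log steps down from clinical Cmax, or from 10 microM when Cmax was unknown.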
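Note: spheroids exposed to agents for 7 days.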
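Throughout, for viability, T/C: 100% = DMSO vehicle wells.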

## NC1c2ccccc2OC12CCN(c1cnc3c(N4CCCc5ncccc54)n[nH]c3n1)CC2 (configuration not stated) + CCn1c(-c2cccnc2C(C)OC)c2c3cc(ccc31)N1CCOC(CC(NC(=O)C(C(C)C)N(C)C(=O)C3(F)CCN(C(=O)C#CC(C)(C)N(C)C)CC3)C(=O)N3CCCC(N3)C(=O)OCC(C)(C)C2)C1
Second compound 0.000949 µM
  IC50: 52.3 nM
Second compound 0.003 µM
  IC50: 46.2 nM
Second compound 0.00949 µM
  IC50: 47.9 nM
Second compound 0.03 µM
  IC50: 38.7 nM
Second compound 0.0949 µM
  IC50: < 31.6 nM
Second compound 0.3 µM
  IC50: < 31.6 nM
Second compound 0.000949 µM, first compound 0.0316 µM
  viability, T/C: 55.4%
Second compound 0.000949 µM, first compound 0.1 µM
  viability, T/C: 43.5%
Second compound 0.000949 µM, first compound 0.316 µM
  viability, T/C: 22.8%
Second compound 0.000949 µM, first compound 1 µM
  viability, T/C: 12.4%
Second compound 0.000949 µM, first compound 3.16 µM
  viability, T/C: 4.73%
Second compound 0.000949 µM, first compound 10 µM
  viability, T/C: 2.85%
Second compound 0.003 µM, first compound 0.0316 µM
  viability, T/C: 57.1%
Second compound 0.003 µM, first compound 0.1 µM
  viability, T/C: 35.3%
Second compound 0.003 µM, first compound 0.316 µM
  viability, T/C: 21.8%
Second compound 0.003 µM, first compound 1 µM
  viability, T/C: 10.3%
Second compound 0.003 µM, first compound 3.16 µM
  viability, T/C: 6.54%
Second compound 0.003 µM, first compound 10 µM
  viability, T/C: 2.52%
Second compound 0.00949 µM, first compound 0.0316 µM
  viability, T/C: 59.1%
Second compound 0.00949 µM, first compound 0.1 µM
  viability, T/C: 33.1%
Second compound 0.00949 µM, first compound 0.316 µM
  viability, T/C: 20.6%
Second compound 0.00949 µM, first compound 1 µM
  viability, T/C: 8.74%
Second compound 0.00949 µM, first compound 3.16 µM
  viability, T/C: 5.35%
Second compound 0.00949 µM, first compound 10 µM
  viability, T/C: 2.44%
Second compound 0.03 µM, first compound 0.0316 µM
  viability, T/C: 53.6%
Second compound 0.03 µM, first compound 0.1 µM
  viability, T/C: 33.8%
Second compound 0.03 µM, first compound 0.316 µM
  viability, T/C: 18.5%
Second compound 0.03 µM, first compound 1 µM
  viability, T/C: 10.7%
Second compound 0.03 µM, first compound 3.16 µM
  viability, T/C: 4.93%
Second compound 0.03 µM, first compound 10 µM
  viability, T/C: 1.68%
Second compound 0.0949 µM, first compound 0.0316 µM
  viability, T/C: 42%
Second compound 0.0949 µM, first compound 0.1 µM
  viability, T/C: 27.2%
Second compound 0.0949 µM, first compound 0.316 µM
  viability, T/C: 12%
Second compound 0.0949 µM, first compound 1 µM
  viability, T/C: 5.4%
Second compound 0.0949 µM, first compound 3.16 µM
  viability, T/C: 2.95%
Second compound 0.0949 µM, first compound 10 µM
  viability, T/C: 1.32%
Second compound 0.3 µM, first compound 0.0316 µM
  viability, T/C: 25.2%
Second compound 0.3 µM, first compound 0.1 µM
  viability, T/C: 10.4%
Second compound 0.3 µM, first compound 0.316 µM
  viability, T/C: 7.14%
Second compound 0.3 µM, first compound 1 µM
  viability, T/C: 2.48%
Second compound 0.3 µM, first compound 3.16 µM
  viability, T/C: 2.04%
Second compound 0.3 µM, first compound 10 µM
  viability, T/C: 1.58%

Reference: PubChem BioAssay AID2060890 (Molecular Pharmacology Branch, DTP, NCI, 2025)
